Molecular target: T1, human RXFP1 (Homo sapiens, UniProt Q9HBX9)
T1 sequence (Q9HBX9 1-757): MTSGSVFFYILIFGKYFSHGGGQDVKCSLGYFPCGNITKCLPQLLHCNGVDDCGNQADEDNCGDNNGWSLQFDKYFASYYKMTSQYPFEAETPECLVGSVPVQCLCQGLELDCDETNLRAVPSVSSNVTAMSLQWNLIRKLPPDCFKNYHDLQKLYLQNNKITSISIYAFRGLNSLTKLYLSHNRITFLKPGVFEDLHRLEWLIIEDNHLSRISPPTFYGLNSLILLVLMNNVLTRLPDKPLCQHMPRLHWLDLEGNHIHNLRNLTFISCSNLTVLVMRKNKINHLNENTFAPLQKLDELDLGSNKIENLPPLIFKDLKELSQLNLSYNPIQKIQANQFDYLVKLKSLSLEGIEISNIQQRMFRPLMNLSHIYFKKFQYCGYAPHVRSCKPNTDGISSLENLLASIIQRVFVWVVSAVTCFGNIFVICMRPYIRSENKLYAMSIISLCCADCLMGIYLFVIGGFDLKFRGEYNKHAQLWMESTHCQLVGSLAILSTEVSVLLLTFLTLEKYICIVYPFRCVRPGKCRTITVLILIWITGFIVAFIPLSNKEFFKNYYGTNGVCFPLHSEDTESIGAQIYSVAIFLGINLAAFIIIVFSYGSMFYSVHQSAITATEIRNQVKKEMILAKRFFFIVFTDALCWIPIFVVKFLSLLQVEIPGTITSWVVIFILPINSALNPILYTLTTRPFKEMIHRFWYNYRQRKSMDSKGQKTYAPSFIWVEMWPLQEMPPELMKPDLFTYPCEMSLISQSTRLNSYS
Test: RXFP1 Hu cAMP (Test A)
Format: cell-based
Parameters: expressed in transfected cells; host or cells: Jump-In T-REx CHO-K1 cells (ThermoFisher), induced with 10 ng/ml doxycycline for 24 h
Conditions: RXFP1 Hu cAMP; for EC50: read-out: Test A EC50
Text: To screen for modulators of hRXFP1, an assay identifying compounds that stimulate cAMP production via the Gs-coupled hRXFP1 receptor was used. cAMP HiRange HTRF kit (available from CisBio Bioassays, France; catalogue number 62AM6PEJ) was employed in large according to manufacturer's recommendations for detection of cAMP. The HTRF method is a competitive immunoassay between native cAMP produced by cells and cAMP labeled with the dye d2. The tracer binding is visualized with a cryptate labeled antibody for cAMP and the signal is thus inversely proportional to the amount of produced cAMP.
Cells: Jump-In™ T-REx™ CHO-K1 Cells (ThermoFisher) stably transfected with human RXFP1 was employed. Cells were induced to express human RXFP1 by treatment with 10 ng/ml doxycycline for 24 h. Cells were then cryopreserved for long term storage.
HTRF detection reagents: cAMP-d2 and anti-cAMP cryptate reconstituted according to CisBio instructions were diluted 1:40 in lysis buffer provided with the HTRF-kit.
3. 4 μL assay buffer with 1 mM IBMX (0.5 mM final concentration) to block phosphodiesterases was added with Multidrop Combi (ThermoFisher).
6. 4 μL cAMP-d2 in lysis buffer was added with Multidrop Combi.
7. 4 μL anti-cAMP cryptate in lysis buffer was added with Multidrop Combi
8. 2 h incubation at room temperature
Using a cAMP standard curve, HTRF data was converted to amount cAMP produced in the samples which was subsequentially used for calculation of concentration responses. Concentration response data were fitted with a four parameter logistic fit, the Hill equation. The results from the assay are reported in Table 36 as EC50 (μM) and Sinf (%).
Where the assay was run multiple times for the same compound, the geometric mean is reported.
Sinf is the fitted activity level, efficacy, at infinite concentration of test compound. To facilitate comparison of efficacy data, efficacy was normalized to % effect of the response stimulated by a saturating concentration of relaxin (1 nM). Where the assay was run multiple times for the same compound, the arithmetic mean is reported.

| SMILES | EC50 [nM] | Test A Sinf [%] |
| --- | --- | --- |
| COc1cc(F)c(O[C@H]2CC[C@@](CO)(C(=O)O)CC2)cc1C(=O)NC1COCC1C(=O)NCC(C)(C)C (single isomer, unassigned) [Example 578, (1R,4s)-4-(2-Fluoro-4-methoxy-5-(((3S*,4R*)-4-(neopentylcarbamoyl)tetrahydrofuran-3-yl)carbamoyl)phenoxy)-1-(hydroxymethyl)cyclohexane-1-carboxylic acid] | > 40000 | – |
| CCC(CC)CNC(=O)c1ccc(C)cc1NC(=O)c1cc(O[C@H]2CC[C@@](C)(C(=O)O)CC2)c(C#N)cc1OC [Example 167] | 120 | 147 |
| COc1cc(F)c(O[C@H]2CC[C@@](C)(C(=O)O)CC2)cc1C(=O)N[C@@H]1[C@H]2CC[C@H](C2)[C@@H]1C(=O)NCC1(C#N)CCC1 [Example 595] | 570 | 116 |
| Cn1ncc2cc(C(=O)N[C@@H]3[C@H]4CC[C@H](C4)[C@@H]3C(=O)NCC3(C)CCC3)cc(O[C@H]3CC[C@@](C)(C(=O)O)CC3)c21 [Example 378] | > 2500 | – |
| COc1cc(F)c(-c2cccc(C(=O)O)c2)cc1C(=O)N[C@@H]1CCC[C@@H]1C(=O)Nc1cccc(S(=O)(=O)C(F)(F)F)c1 (racemic) [Example 300] | 3900 | 78 |
| COc1cc(F)c(OC2CCC(C)(CC(=O)O)CC2)cc1C(=O)NC1C2CCC(C2)C1C(=O)NCC1(C)CCC1 [Example 476, 2-((1S,4s)-4-(2-Fluoro-4-methoxy-5-(((1S,2R,3S,4R)-3-(((1-methylcyclobutyl)methyl)carbamoyl)bicyclo[2.2.1]heptan-2-yl)carbamoyl)phenoxy)-1-methylcyclohexyl)acetic acid] | 300 | 81 |
| COc1cc(F)c(O[C@H]2CC[C@@](C)(C(=O)O)CC2)cc1C(=O)N[C@@H]1COC[C@@H]1C(=O)NCC1(C)CCC1 (racemic) [Example 350] | 3900 | 97 |
| COc1cc(F)c(O[C@H]2CC[C@@](C)(C(=O)O)CC2)cc1C(=O)N[C@@H]1[C@H]2CC[C@H](C2)[C@@H]1C(=O)N[C@H]1CCN(S(=O)(=O)C(F)(F)F)C1 [Example 606] | 420 | 90 |
| COc1cc(F)c(O[C@H]2CC[C@@](C)(C(=O)O)CC2)cc1C(=O)N[C@@H]1[C@H]2CC[C@H](C2)[C@@H]1C(=O)N[C@@H](C)C(F)(F)F [Example 601] | – | 116 |
| COc1cc(F)c(O[C@H]2CC[C@@](C)(C(=O)O)CC2)cc1C(=O)N[C@H]1[C@H]2CC[C@H](CC2)[C@H]1C(=O)NCC1(C)CCC1 (racemic) [Example 470, (1R,4s)-4-(2-Fluoro-4-methoxy-5-(((2SR,3RS)-3-(((1-methylcyclobutyl)methyl)carbamoyl)bicyclo[2.2.2]octan-2-yl)carbamoyl)phenoxy)-1-methylcyclohexane-1-carboxylic acid] | 17 | 102 |
| COc1cc(F)c(-c2ccc(OCCCC(=O)O)cc2)cc1C(=O)N[C@@H]1[C@H]2CC[C@H](C2)[C@@H]1C(=O)Nc1cccc(S(=O)(=O)C(F)(F)F)c1 [Example 251, 4-((2′-Fluoro-4′-methoxy-5′-(((1S,2R,3S,4R)-3-((3-((trifluoromethyl)sulfonyl)phenyl)carbamoyl)bicyclo[2.2.1]heptan-2-yl)carbamoyl)-[1,1′-biphenyl]-4-yl)oxy)butanoic acid] | 33 | 101 |
| COc1cc(C#N)c(Oc2ccc(C(=O)O)cc2)cc1C(=O)N[C@@H]1[C@H]2CC[C@H](C2)[C@@H]1C(=O)NCC1(C)CCC1 [Example 483] | 610 | 92 |
| COc1ccc(Oc2cccc(C(=O)O)c2)cc1C(=O)N[C@H]1[C@@H](C(=O)Nc2cccc(S(=O)(=O)C(F)(F)F)c2)[C@@H]2C=C[C@H]1C2 (racemic) [Example 428] | 5100 | 80 |
| COc1cc(F)c(-c2cc(C)c(C(=O)O)c(C)c2)cc1C(=O)N[C@@H]1[C@H]2CC[C@H](C2)[C@@H]1C(=O)Nc1cccc(S(=O)(=O)C(F)(F)F)c1 [Example 252, 2′-Fluoro-4′-methoxy-3,5-dimethyl-5′-(((1S,2R,3S,4R)-3-((3-((trifluoromethyl)sulfonyl)phenyl)carbamoyl)bicyclo[2.2.1]heptan-2-yl)carbamoyl)-[1,1′-biphenyl]-4-carboxylic acid] | 780 | 86 |
| COc1ccc(-c2cc(C(=O)N[C@H]3[C@@H](C(=O)Nc4cccc(S(=O)(=O)C(F)(F)F)c4)[C@@H]4C=C[C@H]3C4)c(OC)cc2F)cc1C(=O)O (racemic) [Example 230] | 1000 | 116 |
| COc1cc(F)c(O[C@H]2CC[C@@](CO)(C(=O)O)CC2)cc1C(=O)NC1C2CCC(O2)C1C(=O)NCC1(C)CCC1 (single isomer, unassigned) [Example 532, (1R,4s)-4-(2-Fluoro-4-methoxy-5-(((1S*,2S*,3R*,4R*)-3-(((1-methylcyclobutyl)methyl)carbamoyl)-7-oxabicyclo[2.2.1]heptan-2-yl)carbamoyl)phenoxy)-1-(hydroxymethyl)cyclohexane-1-carboxylic acid] | 140 | 104 |
| COc1cc(C#N)c(O[C@H]2CC[C@@](C)(C(=O)O)CC2)cc1C(=O)Nc1cc(Cl)ccc1C(=O)NCC(C)(C)F [Example 164] | 130 | 142 |
| COc1cc(C#N)c(O[C@H]2CC[C@@](C)(C(=O)O)CC2)cc1C(=O)N[C@@H]1[C@H]2CC[C@H](C2)[C@@H]1C(=O)NCc1cccc(C)c1 [Example 115] | 220 | 94 |
| COc1cc(F)c(O[C@H]2CC[C@@H](C(N)=O)CC2)cc1C(=O)N[C@@H]1[C@@H]2CC[C@@H](C2)[C@@H]1C(=O)Nc1cccc(S(F)(F)(F)(F)F)c1 [Example 511, (1S,2S,3R,4R)-3-(5-(((1s,4S)-4-Carbamoylcyclohexyl)oxy)-4-fluoro-2-methoxybenzamido)-N-(3-(pentafluoro-A6-sulfaneyl)phenyl)bicyclo[2.2.1]heptane-2-carboxamide] | 37 | 117 |
| COc1cc(F)c(O[C@@H]2CC[C@H](C(=O)O)OC2)cc1C(=O)NC1[C@H]2CC[C@H](C2)[C@@H]1C(=O)Nc1cccc(S(=O)(=O)C(F)(F)F)c1 (mixture of isomers) [Example 442] | 580 | 103 |
| COc1cc(C#N)c(O[C@H]2CC[C@@](C)(C(=O)O)CC2)cc1C(=O)N[C@@H]1[C@H]2CC[C@H](C2)[C@@H]1C(=O)NCCCF [Example 135] | – | 76 |
| COc1cc(F)c(O[C@H]2CC[C@@](CO)(C(=O)O)CC2)cc1C(=O)N[C@@H]1C[C@@H](OC)C[C@@H]1C(=O)NCC(C)(C)C (racemic) [Example 338] | 4100 | 104 |
| COc1cc(F)c(O[C@H]2CC[C@@](C)(C(=O)O)CC2)cc1C(=O)N[C@@H]1CC[C@@H]1C(=O)NCC(C)(C)C (racemic) [Example 346] | – | 96 |
| COc1cc(C#N)c(O[C@H]2CC[C@@](C)(C(=O)O)CC2)cc1C(=O)N[C@@H]1[C@H]2CC[C@H](C2)[C@@H]1C(=O)NCCCC1CC1 [Example 132] | – | 113 |
| COc1cc(C#N)c(O[C@H]2CC[C@@](C)(C(=O)O)CC2)cc1C(=O)N[C@@H]1[C@H]2CC[C@H](C2)[C@@H]1C(=O)NC[C@@H](C)c1ccccc1 [Example 125] | 16 | 116 |
| COc1cc(C#N)c(O[C@H]2CC[C@@](C)(C(=O)O)CC2)cc1C(=O)N[C@@H]1[C@H]2CC[C@H](C2)[C@@H]1C(=O)NC1CCC(C)(C)CC1 [Example 128] | 46 | 88 |

— patent publication US11667602B2, “Compounds and their use” (AstraZeneca AB, priority 2020, dated 2023)
